From PubChem BioAssay AID1963431 (Molecular Pharmacology Branch, DTP, NCI, 2024)

Test system: Rh18 complex spheroid viability, percent test/control
Assay: Anticancer human tumor Rh18 cell line growth inhibition [Asc];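 further: spheroids exposed to compound for 7 days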;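 on viability, T/C: 100% = DMSO vehicle control wells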
Settings: for IC50: curve of first compound; for viability, T/C: stronger effect = lower value
Method: Multicellular complex tumor spheroid response to apoptosis pathway targeting inhibitors Alrizomadlin, Pelcitoclax, and Dasminapant in combination with a variety of drugs and investigational agents in selected tumor cell lines
The MDM2 inhibitor alrizomadlin, the Bcl-2/Bcl-xL inhibitor pelcitoclax, and the IAPs inhibitor dasminapant were evaluated both individually and in combination with standard of care and investigational anticancer small molecules within a complex spheroid model of solid tumors. . Complex spheroids include a stromal component modeled by human endothelial cells (HUVEC) and fibroblasts modeled by human mesenchymal stem cells (MSCs). The concentration ranges selected for each drug and investigational agent were based upon clinically achievable concentrations if the clinical Cmax of the agent was known.
Compounds. The drugs and investigational agents: alrizomadlin (APG-115; NSC831270), pelcitoclax (APG-1252; NSC835773), dasminapant (APG-1387;NSC834197), TAK-243 (NSC785004), copanlisib (NSC809693), olaparib (NSC753686), talazoparib (NSC767125), cobimetinib (NSC 768068), eltanexor (KPT-8602, NSC 794443), abemaciclib (NSC 768073), sotorasib (NSC818433), adagrasib (NSC 831453), MRTX-1133 (NSC 836407), Iadademestat (ORY1001, NSC 806812), and RMC-4630 (NSC839698), were obtained from the NCI Developmental Therapeutics Program Chemical Repository. The FDA-approved anticancer drug set is available from the Developmental Therapeutics Program at https://dtp.cancer.gov/organization/dscb/obtaining/available plates.htm. […] The stock solutions were prepared in dimethyl sulfoxide (DMSO, Sigma-Aldrich, St. Louis, MO, cat. D2650) at 800-fold the tested concentration and stored at -70 degrees C prior to their use. All drugs and investigational agents were tested over a range starting from a high concentration at or near the clinical Cmax and decreasing in half-log increments. If the clinical Cmax for an agent had not been determined, the highest concentration tested was 10 microM.
The patient-derived cancer (PDC) cell lines include five colon adenocarcinomas: 186277-243-T-J2-PDC, 616215-338-R-J1-PDC, 439559-082-T-J2-PDC, 463943-066-T-J2-PDC, and 519858-162-T-J1-PDC; three pancreatic carcinomas: 323965-272-R-J2-PDC, 521955-158-R6-J3-PDC, and 521955-158-R2-J5-PDC; two uterine sarcomas: 327498-152-R-J2-PDC and 993429-296-R-J1-PDC; two rhabdomyosarcomas: 755483-174-R-J1-PDC and 772245-204-R-J1-PDC; two soft tissue sarcomas: 126254-015-R-J1-PDC and 494315-158-R-J1-PDC; two malignant fibrous histiocytomas: 317291-083-R-J1-PDC and 596521-263-R-J1-PDC; two breast carcinomas: 171881-019-R-J1-PDC and 885512-296-R-J2-PDC; and one ovarian carcinoma: 6556581-035-R-J-PDC were obtained from the NCI PDMR, (https://pdmr.cancer.gov). The established cell lines HSSY-2 synovial sarcoma (RRID:CVCL 8719), SYO-1 synovial sarcoma (RRID:CVCL_7146), MPNST malignant peripheral neural sheath tumor were obtained from the Sloan Kettering Institute. The following established cell lines were purchased from the American Type Culture Collection (ATCC, Manassas, VA), Sor the received from the NCI repository:, PANC-1 pancreatic carcinoma (CRL-1469, RRID:CVCL_0480), OVCAR-5 ovarian carcinoma (RRID:CVCL_1628), OVCAR-8 ovarian carcinoma (RRID:CVCL_1629), , MCF-7 breast carcinoma (CRL-12584, RRID:CVCL_0031), MDA-MB-231 breast carcinoma (CRL-12532, RRID:CVCL_0062), NCI-H1876 small cell lung carcinoma (CRL-5902, RRID:CVCL_1503), NCI-H510A small cell lung carcinoma (HTB-184, RRID:CVCL_1565), NCI-H1417 (CRL-5869, RRID:CVCL_1469), and NCI-H196 small cell lung carcinoma (CRL-5823, RRID:CVCL_1509). Dr. Peter Houghton (Greehey Children's Cancer Research Institute, University of Texas Health Science Center, San Antonio, TX) provided Rh-18 rhabdomyosarcoma (RRID:CVCL_1659). Pooled donor human umbilical vein endothelial cells (HUVEC, Lonza, cat. CC-2519) and human mesenchymal stem cells (hMSC, Lonza, cat. PT-2501) were purchased from Lonza (Walkersville, MD).
Cell Culture. […]

Which IC50 (second compound 0.03 µM) does the source give for `O=C(c1ccc(F)c(F)c1Nc1ccc(I)cc1F)N1CC(O)([C@@H]2CCCCN2)C1` + CCN1C(C(=O)NC23CCC(C(=O)O)(CC2)CC3)C(c2cccc(Cl)c2F)C2(C(=O)Nc3cc(Cl)ccc32)C12CCCCC2 here?
The IC50 was less than 3.16 nM.

And the IC50 (second compound 0.0949 µM)?
The IC50 was less than 3.16 nM.

And the IC50 (second compound 0.3 µM)?
The IC50 was less than 3.16 nM.

What about the IC50 (second compound 0.949 µM) of the same molecule?
Its IC50 is less than 3.16 nM.

And the IC50 (second compound 3 µM)?
Its IC50 is less than 3.16 nM.

And the viability, T/C (second compound 0.03 µM, first compound 0.00316 µM)?
The viability, T/C was 35.4%.

What about the viability, T/C (second compound 0.03 µM, first compound 0.01 µM) of the same molecule?
The viability, T/C was 36.8%.

And the viability, T/C (second compound 0.03 µM, first compound 0.0316 µM)?
The viability, T/C was 31.1%.

What about the viability, T/C (second compound 0.03 µM, first compound 0.1 µM) of the same molecule?
The viability, T/C was 33.5%.

And the viability, T/C (second compound 0.03 µM, first compound 0.316 µM)?
The viability, T/C was 23.8%.

What about the viability, T/C (second compound 0.03 µM, first compound 1 µM) of the same molecule?
Its viability, T/C is 6.29%.

What about the viability, T/C (second compound 0.0949 µM, first compound 0.00316 µM) of the same molecule?
Its viability, T/C is 22.7%.

What about the viability, T/C (second compound 0.0949 µM, first compound 0.01 µM) of the same molecule?
Its viability, T/C is 20.1%.

What about the viability, T/C (second compound 0.0949 µM, first compound 0.0316 µM) of the same molecule?
Its viability, T/C is 20.1%.

What about the viability, T/C (second compound 0.0949 µM, first compound 0.1 µM) of the same molecule?
The viability, T/C was 13.9%.

And the viability, T/C (second compound 0.0949 µM, first compound 0.316 µM)?
The viability, T/C was 7.94%.

What about the viability, T/C (second compound 0.0949 µM, first compound 1 µM) of the same molecule?
The viability, T/C was 1.48%.

And the viability, T/C (second compound 0.3 µM, first compound 0.00316 µM)?
The viability, T/C was 13%.

What about the viability, T/C (second compound 0.3 µM, first compound 0.01 µM) of the same molecule?
The viability, T/C was 11.5%.

What about the viability, T/C (second compound 0.3 µM, first compound 0.0316 µM) of the same molecule?
Its viability, T/C is 10.7%.

What about the viability, T/C (second compound 0.3 µM, first compound 0.1 µM) of the same molecule?
The viability, T/C was 8.42%.

What about the viability, T/C (second compound 0.3 µM, first compound 0.316 µM) of the same molecule?
Its viability, T/C is 3.11%.

What about the viability, T/C (second compound 0.3 µM, first compound 1 µM) of the same molecule?
The viability, T/C was 1.29%.

And the viability, T/C (second compound 0.949 µM, first compound 0.00316 µM)?
The viability, T/C was 9.01%.

And the viability, T/C (second compound 0.949 µM, first compound 0.01 µM)?
The viability, T/C was 11.2%.

What about the viability, T/C (second compound 0.949 µM, first compound 0.0316 µM) of the same molecule?
The viability, T/C was 9.23%.

And the viability, T/C (second compound 0.949 µM, first compound 0.1 µM)?
Its viability, T/C is 5.03%.

What about the viability, T/C (second compound 0.949 µM, first compound 0.316 µM) of the same molecule?
The viability, T/C was 0.89%.

What about the viability, T/C (second compound 0.949 µM, first compound 1 µM) of the same molecule?
The viability, T/C was 0.92%.

What about the viability, T/C (second compound 3 µM, first compound 0.00316 µM) of the same molecule?
Its viability, T/C is 8.3%.

What about the viability, T/C (second compound 3 µM, first compound 0.01 µM) of the same molecule?
Its viability, T/C is 11.4%.

What about the viability, T/C (second compound 3 µM, first compound 0.0316 µM) of the same molecule?
The viability, T/C was 10.8%.

What about the viability, T/C (second compound 3 µM, first compound 0.1 µM) of the same molecule?
The viability, T/C was 2.33%.

What about the viability, T/C (second compound 3 µM, first compound 0.316 µM) of the same molecule?
Its viability, T/C is 0.83%.

What about the viability, T/C (second compound 3 µM, first compound 1 µM) of the same molecule?
Its viability, T/C is 1.01%.
